For test [1], the system named is SK-BR-3 tumor cells. As to the kind of experiment: In vitro activity test (MTS, 5 days), growth inhibition of SK-BR-3 cells. The conditions noted are these: Homo sapiens, 120 h. Format: cell-based. On the procedure: • Cells: derived from the Cell Bank of the Chinese Academy of Sciences; • Tumor cell culture medium: Gibco™; • Fetal Bovine Serum (FBS): BIOWEST™;
• Growth medium (with 10% FBS, Penicillin/streptomycin (100 U/mL); • Assay medium (with 1% FBS, Penicillin/streptomycin (100 U/mL);
The biosafety cabinet was turned on for UV light irradiation 30 min in advance, and subsequently ventilated for 3 minutes. The growth medium, assay medium, D-PBS and trypsin were preheated in a 37°C thermostatic water bath, after which the surface was sterilized with alcohol and placed in the biosafety cabinet. Cells with a confluence of ~80% (logarithmic growth phase) were selected and placed in a biosafety cabinet, old medium was aspirated off, rinsed with D-PBS, aspirated and discarded, digested with trypsin for 2-3 minutes, after which growth medium was added to terminate the trypsin, and centrifuged at 500 × g for 5 minutes. The centrifugation supernatant was aspirated off, and the cells were mixed with 4 mL of assay medium, and 100 uL of the cells were taken for counting (of which 50 uL of cytosol was taken out, and 50 uL of 0.4% cell solution was added to 50 µL of 0.4% Trypan Blue Stain and mix, count after mixing). Spread the plate according to the previously set cell number, 80 uL/well in 96-well plate, wells E11, F11, G11 only received 80 uL of detection medium, the wells on the edge received 200 uL of DPBS to seal the edge. After the cells are completely attached to the wall (usually at least 4 hours), the test samples were configured and diluted: 1.0 mL of 2.5 µM (5 ×Top Dose) test samples were configured with the assay medium and dispensed into the first column of the V-type 96-well plate, with 200 µL in each well; 180 µL of assay medium was added to the second through eighth columns, and 30 µL was added to the second column from the first column, and mixed up and down with a row gun for […]. The test medium was mixed up and down 10 times with a row gun, discard the gun tip, and the remaining test concentration points were operated sequentially to perform 7-fold gradient concentration dilution. […]
The MTS reagent was removed from the test samples after 5 days of action, thawed at room temperature and protected from light, vortexed and mixed thoroughly, and then 20 µL of Cell Titer One Solution Reagen MTS reagent was added along the side wall of the wells for every 100 µL of cell culture volume in a biosafety cabinet. […] After the end of the reaction, took out the 96-well plate, placed in the enzyme labeling instrument to detect the OD490 nm absorbance value, and performed the data recording, organization and storage.

The test system of test [2] is N87 tumor cells. Kind of test: In vitro activity test (MTS, 5 days), growth inhibition of N87 cells. Format: cell-based. To be noted: 120 h.
Description: The biosafety cabinet was turned on for UV light irradiation 30 min in advance, and subsequently ventilated for 3 minutes. The growth medium, assay medium, D-PBS and trypsin were preheated in a 37°C thermostatic water bath, after which the surface was sterilized with alcohol and placed in the biosafety cabinet. Cells with a confluence of ~80% (logarithmic growth phase) were selected and placed in a biosafety cabinet, old medium was aspirated off, rinsed with D-PBS, aspirated and discarded, digested with trypsin for 2-3 minutes, after which growth medium was added to terminate the trypsin, and centrifuged at 500 × g for 5 minutes. The centrifugation supernatant was aspirated off, and the cells were mixed with 4 mL of assay medium, and 100 uL of the cells were taken for counting (of which 50 uL of cytosol was taken out, and 50 uL of 0.4% cell solution was added to 50 µL of 0.4% Trypan Blue Stain and mix, count after mixing). Spread the plate according to the previously set cell number, 80 uL/well in 96-well plate, wells E11, F11, G11 only received 80 uL of detection medium, the wells on the edge received 200 uL of DPBS to seal the edge. […]

This note sets out measurements from EP4420684A1, “DNA TOXIC DIMER COMPOUND AND CONJUGATE THEREOF” (Systimmune, Inc., priority 2022, dated 2023).

One may read the IC50 as the concentration that gives 50% inhibition. Low values mean greater potency, high ones weaker potency.

For the compound `COc1cc2c(cc1OCCCCC(=O)N1C[C@@H](CCl)c3c1cc(O)c1cccc(C)c31)N=C[C@@H]1CC(c3ccc(NC(=O)CO)cc3)=CN1C2=O` [Compound C1], the concentration for half-maximal inhibition (IC50) in test [1] worked out at 8.67 nM; in test [2] it was 9.68 nM.

In test [1], `COc1ccc(C2=CN3C(=O)c4cc(OC)c(OCC56CC(C(=O)N7C[C@@H](CCl)c8c7cc(O)c7cccc(C)c87)(C5)C6)cc4N=C[C@@H]3C2)cc1` [Compound A] registered an IC50 of 0.52 nM.

For the compound `COc1cc2c(cc1OCC13CC(C(=O)N4C[C@@H](CCl)c5c4cc(O)c4cccc(C)c54)(C1)C3)N=C[C@@H]1CC(c3ccc(NC(=O)CO)cc3)=CN1C2=O` [Compound B1], the results for the 50% inhibitory concentration (IC50) in test [1] and in test [2] were 4.23 nM and 5.03 nM, respectively.

Regarding `COc1cc2c(cc1OCCCCC(=O)N1C[C@@H](CCl)c3c1cc(O)c1cccc(C)c31)N=C[C@@H]1Cc3ccc(NC(=O)CO)cc3N1C2=O` [Compound D1], the IC50 in test [1] turned out to be 10.3 nM; in test [2], 12.3 nM.
